From ChEMBL document CHEMBL1142978, “Probing the anticancer activity of nucleoside analogues: a QSAR model approach using an internally consistent training set” (J Med Chem, 2007)

Assay: Cytotoxicity against mouse L1210/0 cells after 48 hrs
Type: cell-based

Row | Structure (SMILES) | IC50 (Mus musculus, L1210/0, 48 h) [µM] | IC50 (l1210/0) [µM]
1 | O=c1[nH]cnc2c1nnn2CC1CCC(CO)C1 (centres undefined) | > 200 | –
2 | CC(=O)OCCOCn1cnc2c(Cl)nc(Cl)nc21 | 39.3 | –
3 | Nc1ncnc2c1ncn2[C@@H]1CCC[C@H]1CO | > 200 | –
4 | COc1c(C)c(-c2cn([C@H]3C[C@H](O)[C@@H](CO)O3)c(=O)[nH]c2=O)c(OC)c2ccccc12 | > 200 | –
5 | CCCCCC(=O)O[C@@H]1[C@H](OC(=O)CCCCC)CO[C@@H](OC)[C@@]1(F)n1ccc(=O)[nH]c1=O | 40 | –
6 | CC(=O)OC(C)Cn1cnc2c(Cl)nc(N)nc21 (centres undefined) | > 200 | –
7 | Nc1nc(NC2CC2)c2ncn(CCOCP(=O)(O)O)c2n1 | 10.2 | –
8 | C#COc1cn([C@H]2C[C@H](O)[C@@H](CO)O2)c(=O)[nH]c1=O | > 200 | –
9 | Nc1ncnc2c1ncn2C1CC(O)C(/C=N/O)O1 (centres undefined) | 17.4 | –
10 | Nc1nc(O)c2nnn([C@H]3CCCC[C@H]3CO)c2n1 | > 200 | –
11 | Cc1ccc(-c2ncnc3c2ncn3C[C@@H]2C[C@H](CO)c3ccccc32)cc1 | 15.4 | –
12 | O=C1O/C(=C\Cn2cc(C(F)(F)F)c(=O)[nH]c2=O)C(OCc2ccccc2)=C1OCc1ccccc1 | 2 | –
13 | OC[C@@H]1C[C@H](Cn2cnc3c(Cl)ncnc32)c2c(-c3ccccc3)nnc(-c3ccccc3)c21 | > 200 | –
14 | CC1(C)[C@H](CCO)C[C@@H]1n1cnc2c(Cl)nc(N)nc21 | 105 | –
15 | OC[C@@H]1C[C@H](Cn2cnc3c(NC4CCC4)ncnc32)c2c(-c3ccccc3)nnc(-c3ccccc3)c21 | 90.8 | –
16 | Cc1cn([C@@H]2O[C@H](CO)[C@@H](O)[C@@H]2O)c(=O)[nH]c1=O | 24.4 | –
17 | COC1=C(OC)C(O)(CCn2cnc3c(Cl)ncnc32)OC1=O (centres undefined) | > 200 | –
18 | O[C@H]1C[C@@H](Cn2cnc3c(-c4ccccc4)ncnc32)c2ccccc21 | > 200 | –
19 | O=c1[nH]c(=O)n(C[C@@H]2C[C@H](O)c3ccccc32)cc1Br | > 200 | –
20 | Nc1ncnc2c1ncn2C[C@@H]1C[C@H](CO)c2ccccc21 | > 200 | –
21 | OCCOCn1cnc2c(S)nc(F)nc21 | 170 | –
22 | O=c1ccn(C[C@@H]2C[C@H](CO)c3ccccc32)c(=O)[nH]1 | > 200 | –
23 | Nc1nc(N)c2nnn([C@H]3CCCC[C@H]3CO)c2n1 | > 200 | –
24 | Nc1nc(N)c2ncn(CCOCP(=O)(O)O)c2n1 [PMEDAP] | 1.73 | –

Row | Structure (SMILES) | IC50 (Mus musculus, L1210/0, 48 h) [µM] | IC50 (l1210/0) [µM]
25 | CC(=O)OC(C)Cn1cnc2c(=S)[nH]c(N)nc21 (centres undefined) | 128 | –
26 | OC[C@@H]1CCC[C@H]1Cn1cnc2c(O)ncnc21 | > 200 | –
27 | OC[C@@H]1CCC[C@H]1n1cnc2c(O)ncnc21 | > 200 | –
28 | Nc1nc2c(ncn2[C@@H]2O[C@H](CO)[C@H](F)[C@@H]2O)c(=O)[nH]1 | 17.5 | –
29 | O=c1[nH]c(=O)n([C@@H]2CCC[C@H]2CO)cc1I | > 200 | –
30 | O=c1[nH]cnc2c1ncn2[C@@H]1C[C@@H]2COC[C@H]2[C@H]1CO | > 200 | –
31 | CC1(C)[C@@H](CCCO)C[C@H]1n1cnc2c(=O)[nH]c(N)nc21 | > 200 | –
32 | Nc1ncnc2c1ncn2[C@@H]1O[C@H](/C=C/F)[C@H](O)[C@@H]1O | > 200 | –
33 | COc1ccc(-c2ncnc3c2ncn3C[C@@H]2C[C@H](CO)c3ccccc32)cc1 | 17.6 | –
34 | COC1=C(OCc2ccc([N+](=O)[O-])cc2)C(=O)O/C1=C\Cn1cnc2c(Cl)ncnc21 | 13.6 | –
35 | CO/N=C/C1CC(n2cnc3c(N)ncnc32)C(O)C1O (centres undefined) | > 200 | –
36 | O=C1O/C(=C\Cn2ccc(=O)[nH]c2=O)C(Cc2ccccc2)=C1O | > 200 | –
37 | CC1(C)[C@@H](CCCO)C[C@H]1n1nnc2c(N)nc(N)nc21 | > 200 | –
38 | C=Cc1cn([C@H]2C[C@H](O)[C@@H](CO)O2)c(=O)[nH]c1=O | 14.2 | –
39 | O=C1O/C(=C\Cn2cc(I)c(=O)[nH]c2=O)C(OCc2ccccc2)=C1OCc1ccccc1 | 7.5 | –
40 | O=c1[nH]c(=O)n(COCCO)cc1F | > 200 | –
41 | N#CSc1cn([C@H]2C[C@H](O)[C@@H](CO)O2)c(=O)[nH]c1=O | 78.9 | –
42 | Cc1ccc(S(=O)(=O)/C=C/[C@H]2O[C@@H](n3cnc4c(N)ncnc43)[C@@H](O)[C@H]2O)cc1 | 54 | –
43 | CC#Cc1cn([C@H]2C[C@H](O)[C@@H](CO)O2)c(=O)[nH]c1=O | > 200 | –
44 | CC1=C(C)C(=O)C(c2cn([C@H]3C[C@H](O)[C@@H](CO)O3)c(=O)[nH]c2=O)=C(C)C1=O | 174 | –
45 | O=c1ccn([C@@H]2O[C@H](CO)[C@H](F)[C@@H]2O)c(=O)[nH]1 | > 200 | –
46 | COc1cc(-c2cn([C@H]3C[C@H](O)[C@@H](CO)O3)c(=O)[nH]c2=O)c(OC)c(C)c1C | > 200 | –
47 | Nc1nc(Cl)c2ncn([C@H]3CCCC[C@H]3CO)c2n1 | > 200 | –
48 | O=c1[nH]c(=O)n(CC2CCC(CO)C2)cc1I (centres undefined) | > 200 | –

Row | Structure (SMILES) | IC50 (Mus musculus, L1210/0, 48 h) [µM] | IC50 (l1210/0) [µM]
49 | Nc1ncnc2c1ncn2[C@@H]1O[C@H](/C=C\Cl)[C@H](O)[C@@H]1O | 143 | –
50 | Nc1ncnc2c1nnn2[C@@H]1C[C@H](CO)[C@@H](CO)[C@H]1CO | > 200 | –
51 | Nc1ncnc2c1ncn2CC1CCC(CO)C1 (centres undefined) | > 200 | –
52 | O=c1[nH]cnc2c1nnn2C[C@H]1CCC[C@H]1CO | > 200 | –
53 | CC1NC(=O)C(F)=CN1[C@@H]1O[C@H](COP2OCCCO2)[C@@H](O)C1=O (some centres undefined) | 0.75 | –
54 | CC1=C(C)C(=O)C(c2cn([C@H]3C[C@H](O)[C@@H](CO)O3)c(=O)[nH]c2=O)=CC1=O | 112 | –
55 | COc1nc(I)nc2c1ncn2COCCO | > 200 | –
56 | O=c1[nH]c(=O)n([C@@H]2C[C@H](CO)C[C@@H]2CO)cc1I | > 200 | –
57 | CC1(C)[C@@H](CO)CC[C@@]1(C)Cn1cnc2c(Cl)ncnc21 | 42.8 | –
58 | CC(O)Cn1cnc2c(Cl)nc(I)nc21 (centres undefined) | > 200 | –
59 | O=c1[nH]c(=O)n([C@H]2C[C@H](O)[C@@H](CO)O2)cc1/C=C/Br [BRIVUDINE] | 80.8 | –
60 | O=C1C=CN(COCCO)C(=O)C1 | > 200 | –
61 | O=c1[nH]cnc2c1ncn2C1CC(CO)C(CO)C1 (centres undefined) | > 200 | –
62 | O=c1[nH]c(=O)n([C@H]2C[C@H](O)[C@@H](CO)O2)cc1C#Cc1ccccc1 | > 200 | –
63 | O=C1O/C(=C/Cn2cnc3ncnc(Cl)c32)C(OCc2ccccc2)=C1OCc1ccccc1 | 4.1 | –
64 | Nc1ncnc2c1ncn2[C@@H]1O[C@H](/C=N/O)[C@@H](O)[C@H]1O (stereo in doubt; 75) | – | 6.47
65 | Nc1nc(N)c2ncn([C@H]3CCCC[C@H]3CO)c2n1 | > 200 | –
66 | CO[C@@H]1OC(n2cc(F)c(=O)[nH]c2=O)[C@H](OC(C)=O)[C@@H](OC(C)=O)[C@H]1F (some centres undefined) | 34 | –
67 | CC1(C)C(CO)CC1Cn1cnc2c(=O)[nH]c(N)nc21 (centres undefined) | > 200 | –
68 | O=C1OC(C(O)Cn2ccc(=O)[nH]c2=O)C(OCc2ccccc2)=C1OCc1ccccc1 (centres undefined) | 157 | –
69 | O=C1OC(C(O)Cn2cc(F)c(=O)[nH]c2=O)C(OCc2ccccc2)=C1OCc1ccccc1 (centres undefined) | 140 | –
70 | Nc1ncnc2c1ncn2[C@@H]1O[C@H](C=O)C[C@@H]1O | > 200 | –
71 | O=c1[nH]c(=O)n(COCCO)cc1/C=C/Br | > 200 | –
72 | O=c1[nH]c(=O)n([C@H]2C[C@H](O)[C@@H](CO)O2)cc1CO | 9.18 | –

Row | Structure (SMILES) | IC50 (Mus musculus, L1210/0, 48 h) [µM] | IC50 (l1210/0) [µM]
73 | O=C1OC(=CCn2cnc3c(-n4cccc4)ncnc32)C(OCc2ccccc2)=C1OCc1ccccc1 | 110 | –
74 | N#Cc1cn([C@H]2C[C@H](O)[C@@H](CO)O2)c(=O)[nH]c1=O | > 200 | –
75 | OC[C@H]1C[C@@H](Cn2cnc3c(-c4ccc(Cl)cc4)ncnc32)c2ccccc21 | 8.44 | –
76 | Nc1ncnc2c1ncn2[C@@H]1C[C@@H]2COC[C@H]2[C@H]1CO | > 200 | –
77 | Nc1ncnc2c1nnn2C[C@H]1CCC[C@H]1CO | > 200 | –
78 | CCCCCC#Cc1cn([C@H]2C[C@H](O)[C@@H](CO)O2)c(=O)[nH]c1=O | > 200 | –
79 | Nc1nc2c(nc(Br)n2COCCO)c(=O)[nH]1 | > 200 | –
80 | O=c1ccn(COCCO)c(=O)[nH]1 | > 200 | –
81 | O=c1[nH]c(=O)n([C@H]2C[C@H](O)[C@@H](CO)O2)cc1Br [BROXURIDINE] | 84.7 | –
82 | Nc1ncnc2c1ncn2[C@H]1C[C@@H](O)[C@@H](C=O)O1 | 26.6 | –
83 | COc1ncnc2c1ncn2C[C@@H]1C[C@H](O)c2ccccc21 | > 200 | –
84 | COC1=C(OC)/C(=C/C(n2cnc3c(Cl)ncnc32)P(=O)(OC)OC)OC1=O (centres undefined) | 37.7 | –
85 | COC1=C(OC)/C(=C/C(n2cnc3c(N)ncnc32)P(=O)(O)O)OC1=O (centres undefined) | 11.4 | –
86 | O=c1[nH]c(=O)n([C@H]2C[C@H](O)[C@@H](CO)O2)cc1O | > 200 | –
87 | O=C1O/C(=C\Cn2cnc3c(Cl)ncnc32)C(OCc2ccccc2)=C1OCc1ccccc1 | 11.6 | –
88 | CC1(C)[C@@H](CCCO)C[C@H]1n1cnc2c(Cl)nc(N)nc21 | > 200 | –
89 | CC(C)Nc1ncnc2c1ncn2C1C[C@@H](CO)[C@@H](CO)C1 (some centres undefined) | > 200 | –
90 | O=C1O/C(=C\Cn2cc(Cl)c(=O)[nH]c2=O)C(OCc2ccccc2)=C1OCc1ccccc1 | 12.2 | –
91 | [N-]=[N+]=NCc1cn([C@H]2C[C@H](O)[C@@H](CO)O2)c(=O)[nH]c1=O | 124 | –
92 | COC1=C(OC)/C(=C/CP(=O)(OC)OC)OC1=O | > 200 | –
93 | O=c1[nH]c(=O)n(C2C[C@@H](CO)[C@@H](CO)C2)cc1I (some centres undefined) | > 200 | –
94 | CCCc1cn([C@H]2C[C@H](O)[C@@H](CO)O2)c(=O)[nH]c1=O | > 200 | –
